Measurements as given in patent US20220117938A1, “COMBINATON THERAPY WITH A DON PRODRUG AND AN IMMUNE CHECKPOINT INHIBITOR” (DRACEN PHARMACEUTICALS, INC., priority 2019, published 2022).
pIC50: −log10 of the molar value.

Tested on: Ninety four (94) cell lines and PBMC
Test: Cell viability assay, SRB staining, 94 cell lines and PBMC (Example 7, Experiment 2)
Assay type: cell-based
Experimental: Ninety four (94) cell lines were seeded at a density varying from 500 to 7000 cells/well depending on their growth characteristics. PBMC were seeded at the density 50,000-100,000 cells/well. Cells were incubated for 48 h prior to compound treatment. Compound 1 and DON were evaluated at a concertation range of 1 nM up to 100 μM. Compound 1 dilutions in DMSO and DON dilutions in PBS were performed in 96-well 0.5 mL plates (Greiner Bio-One, Germany). Compounds were then diluted 1:100 in RPMI medium. […] of cells were treated by mixing with 10 μL of the compound-containing media (resulting in a final DMSO concentration of 0.1%). The cells were allowed to grow at 37° C. for 120 h. Cells were fixed to the surface by addition of 10% TCA (for adherent growing cells) or 50% TCA (for semi-adherent growing cells or cells growing in suspension). After an hour of incubation at 4° C., plates were washed twice with 400 μL of deionized water and dried. Cells were then stained with 100 μL of 0.04% wt/v SRB. The plates were incubated at room temperature for at least 30 min and washed six times with 1% acetic acid to remove unbound stain. The plates were left to dry at room temperature and bound SRB was solubilized with 100 μL of 10 mM Tris base. Optical density was measured at 492, 520 and 560 nm using a Deelux-LED96 plate reader (Deelux Labortechnik GmbH, Germany).
Cell lines were purchased directly from the ATCC, NCI, CLS, and DSMZ cell line collections. A master bank and working aliquots were prepared. Cells used for the study had undergone less than 20 passages. To rule out potential contamination or wrong assignment, all cell lines were tested by STR analysis. Absence of mycoplasma contamination was confirmed for all cell lines used in the studies.
The cell lines were grown in the media recommended by the suppliers in the presence of 100 U/mL penicillin and 100 μg/mL streptomycin supplied with 10% FCS (PAA, Germany). RPMI 1640, DMEM, and MEM Earle's medium were from PAA (Coelbe, Germany), supplements 2 mM L-glutamine, 1 mM Na-pyruvate and 1% NEAA were from PAA (Coelbe, Germany), 2.5% horse serum, hydrocortisone, transferin, beta-estradiol, selenite and 1 U/mL insulin from Sigma-Aldrich (Munich, Germany). RPMI medium was used for culturing the following cell lines: 5637, 22RV1, 7860, A2780, A431, A549, ACHN, ASPC1, BT20, BXPC3, CAKI1, CLS439, COLO205, COLO678, DLD1, DU145, EFO21, EJ28, HCT15, HS578T, IGROV1, JAR, LOVO, MCF7, MDA MB231, MDA MB435, MDA MB436, MDA MB468, MHHES1, MT3, NCI H292, NCI H358M, NCI H460, NCIH82, OVCAR3, OVCAR4, PANC 1005 (addition of insulin), PBMC, PC3, RDES, SF268, SF295, SKBR3, SK MEL28, SKMEL5, SKOV3, SW620, U2OS, UMUC3, and U031.
DMEM medium was used to culture A204, A375, A673, C33A, CASKI, HCT116, HEPG2, HS729, HT29, J82, MG63, MIAPACA2 (addition of horse serum), PANC1, PLCPRF5, RD, SAOS2, SKLMS1, SKNAS, SNB75, T24, and TE671.
MEM Earle's medium was used for CACO2, CALU6, HEK293, HELA, HT1080, IMR90, JEG3, JIMT1, SKHEP1, SKNSH, and U87MG. Cell seeding conditions were optimized for each cell line. The cell seeding density varied from 500 to 7000 cells/well depending on their growth characteristics. Peripheral blood mononuclear cells (PBMC) were freshly isolated from whole blood of an anonymous donor through density gradient centrifugation using Ficoll solution (d=1.077). In short, blood was diluted 1:1 with PBS and carefully placed on the Ficoll. After centrifugation 1000×g for 15 min (braking rate 0), the ring containing mainly leucocytes was collected in PBS followed by three times washing with PBS to reduce the platelets. PBMC were seeded at the density 50,000-100,000 cells/well. Cells were grown in 5% CO2 atmosphere in a NB-203XXL incubator (N-BIOTEK Inc., Korea).
Ninety-four cell lines were tested in parallel. Cell growth and treatment were performed in 96 well microtitre plates CELLSTAR® (Greiner Bio-One, Germany). […]

[1] = Homo sapiens, MDA-MB-468, MDAMB468, breast
[2] = Homo sapiens, MG-63, MG63, bone
[3] = Homo sapiens, MHH-ES-1, MHHES1, bone
[4] = Homo sapiens, MIA PaCa-2, MIAPACA2, pancreas
[5] = Homo sapiens, MINO, hematological
[6] = Homo sapiens, MV4-11, MV4-11, hematological
[7] = Homo sapiens, NCI-H460, NCIH460, lung
[8] = Homo sapiens, OVCAR-3, OVCAR3, ovary
[9] = Homo sapiens, OVCAR-4, OVCAR4, ovary
[10] = Homo sapiens, PANC-1, PANC1, pancreas
[11] = Homo sapiens, PLC-PRF-5, PLCPRF5, liver
[12] = Homo sapiens, Panc1005, PANC1005, pancreas
[13] = Homo sapiens, SAOS-2, SAOS2, bone
[14] = Homo sapiens, SF-268, SF268, brain
[15] = Homo sapiens, SF-295, SF295, brain
[16] = Homo sapiens, SK-BR-3, SKBR3, breast
[17] = Homo sapiens, SK-HEP1, SKHEP1, liver
[18] = Homo sapiens, SK-LMS-1, SKLMS1, uterus
[19] = Homo sapiens, SK-MEL-5, SKMEL5, skin
[20] = Homo sapiens, SK-MEL-28, SKMEL28, skin
[21] = Homo sapiens, SK-N-AS, SKNAS, brain
[22] = Homo sapiens, SK-N-SH, SKNSH, brain
[23] = Homo sapiens, SK-OV-3, SKOV3, ovary
[24] = Homo sapiens, SNB-75, SNB75, brain
[25] = Homo sapiens, SU-DHL-6, SU-DHL-6, hematological
[26] = Homo sapiens, SW-620, SW620, colon
[27] = Homo sapiens, TE-671, TE671, muscle
[28] = Homo sapiens, THP-1, THP-1, hematological
[29] = Homo sapiens, U-87 MG, U87MG, brain
[30] = Homo sapiens, UMUC3, UMUC3, bladder
[31] = Homo sapiens, UO-31, UO31, kidney
[32] = Homo sapiens, WSU-NHL, hematological

CC(=O)N[C@@H](Cc1c[nH]c2ccccc12)C(=O)N[C@@H](CCC(=O)C=[N+]=[N-])C(=O)OC(C)C [Compound 1, Isopropyl (S)-2-((S)-2-acetamido-3-(1H-indol-3-yl)propanamido)-6-diazo-5-oxohexanoate]
GI50 [1]: 0.531 µM | pIC50 [1]: 6.10 | GI50 [2]: 4.6 µM | pIC50 [2]: 5.27 | GI50 [3]: 6.19 µM | pIC50 [3]: 5.20 | GI50 [4]: 3.29 µM | pIC50 [4]: 5.45 | GI50 [5]: 0.61 µM | pIC50 [5]: 6.10 | GI50 [6]: 0.976 µM | pIC50 [6]: 5.99 | GI50 (Homo sapiens, NCI-H292, NCIH292, lung): 14.5 µM | GI50 [7]: 4.74 µM | pIC50 [7]: 5.30 | GI50 [8]: 1.65 µM | pIC50 [8]: 5.39 | GI50 [9]: 0.812 µM | pIC50 [9]: 5.78 | GI50 [10]: 7.98 µM | pIC50 [10]: 5.07 | GI50 [11]: 6.15 µM | pIC50 [11]: 5.13 | GI50 [12]: 14.8 µM | pIC50 [12]: 4.54 | GI50 (Homo sapiens, Ramos, hematological): 6.63 µM | GI50 [13]: 2.8 µM | pIC50 [13]: 4.68 | GI50 [14]: 7.37 µM | pIC50 [14]: 5.02 | GI50 [15]: 9.73 µM | pIC50 [15]: 4.96 | GI50 [16]: 2.65 µM | pIC50 [16]: 5.41 | GI50 [17]: 3.93 µM | pIC50 [17]: 5.29 | GI50 [18]: 1.34 µM | pIC50 [18]: 5.67 | GI50 [19]: 2.05 µM | pIC50 [19]: 5.54 | GI50 [20]: 1.23 µM | pIC50 [20]: 5.79 | GI50 [21]: 7.62 µM | pIC50 [21]: 4.73 | GI50 [22]: 8.18 µM | pIC50 [22]: 5.04 | GI50 [23]: 1.26 µM | pIC50 [23]: 5.42 | GI50 [24]: 18.4 µM | pIC50 [24]: 4.40 | GI50 (Homo sapiens, SU-DHL10, SU-DHL-10, hematological): 4.18 µM | GI50 [25]: 0.971 µM | pIC50 [25]: 5.95 | GI50 [26]: 7.96 µM | pIC50 [26]: 5.07 | GI50 [27]: 5.44 µM | pIC50 [27]: 5.22 | GI50 [28]: 1.99 µM | pIC50 [28]: 5.65 | GI50 (Homo sapiens, U2OS, bone): 10 µM | pIC50 (Homo sapiens, U2OS, bone): 4.89 | GI50 [29]: 2.38 µM | pIC50 [29]: 5.39 | GI50 [30]: 2.32 µM | pIC50 [30]: 5.56 | GI50 [31]: 17.7 µM | pIC50 [31]: 4.35 | GI50 [32]: 1.16 µM | pIC50 [32]: 5.82 | pIC50 (J82, bladder): 4.80 | pIC50 (JAR, placenta): 5.62 | pIC50 (MT3, breast): 5.84 | GI50 (NCI-H358M, NCIH358M, lung): 3.31 µM | pIC50 (NCI-H358M, NCIH358M, lung): 5.05 | GI50 (PBMC, 5637, bladder): 2.15 µM | GI50 (PBMC, CLS439, bladder): 7.57 µM | GI50 (PBMC, HS729, muscle): 10.1 µM | GI50 (PBMC, J82, bladder): 14.2 µM | GI50 (PBMC, JAR, placenta): 2.23 µM | GI50 (PBMC, MT3, breast): 1.1 µM | GI50 (PBMC, PC3, prostate): 11.5 µM | GI50 (PBMC, RD, muscle): 4.05 µM | GI50 (PBMC, T24, bladder): 4.71 µM | pIC50 (PC3, prostate): 4.75 | pIC50 (RD, muscle): 5.26 | GI50 (RD-ES, RDES, bone): 3.95 µM | pIC50 (RD-ES, RDES, bone): 5.26 | pIC50 (T24, bladder): 5.31
